Data as given in patent US11129909B2, “Conjugate and block copolymer containing fluorescent chromophore and preparation method therefor and use thereof” (priority 2017, dated 2021).

What was measured:
NQO1 = NQO1 (Homo sapiens, UniProt P15559); assay: Enzyme detection by antibody-probe conjugate: fluorescence/FRET change with NADPH/NQO1; format: biochemical; conditions: NADPH/NQO1 in water system, culture time of about 1 h; NAM emission 530 nm vs C1 emission 435 nm
Procedure: In a culture time of about 1 h, a change of about 20 times the FRET ratio (intensity ratio of two emission peaks) can be seen (see inset). The above results indicated the occurrence of an efficient FRET process between the C1 coumarin linkage bond and the enzymatic-produced NAM residue.

[1] = tested on: LS180 cells (normal CEA and lacking NQO1); assay: CLSM detection of intracellular CEA and quinone oxidoreductase, LS180 cells; format: cell-based; conditions: LS180 cells co-cultured with conjugate
Description: (§1) Viable HepG2 cells (lacking CEA and NQO1), LS180 cells (normal CEA and lacking NQO1) and HT29 cells (normal CEA and normal NQO1) were co-cultured with QNAM-C1-ACEA antibody-probe conjugate.

[2] = tested on: HT29 cells (normal CEA and normal NQO1); assay: CLSM detection of intracellular CEA and quinone oxidoreductase, HT29 cells; format: cell-based; conditions: HT29 cells co-cultured with conjugate
Description: as §1

[3] = tested on: HepG2 cells (lacking CEA and NQO1); assay: CLSM detection of intracellular CEA and quinone oxidoreductase, HepG2 cells; format: cell-based; conditions: HepG2 cells co-cultured with conjugate
Description: as §1

Chain of NQO1 (P15559 whole entry, species assumed): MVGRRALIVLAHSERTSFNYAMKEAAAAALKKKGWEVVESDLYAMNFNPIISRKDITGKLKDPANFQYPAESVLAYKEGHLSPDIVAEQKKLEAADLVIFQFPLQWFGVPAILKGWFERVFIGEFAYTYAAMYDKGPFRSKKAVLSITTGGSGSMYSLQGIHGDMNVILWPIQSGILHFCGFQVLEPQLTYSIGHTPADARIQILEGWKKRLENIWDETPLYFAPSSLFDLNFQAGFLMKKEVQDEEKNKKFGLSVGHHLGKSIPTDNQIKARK

SMILES: COC(=O)CC(SC)C(=O)Nc1cc2ccc(-c3cn(CCN4C(=O)c5cccc6c(NC(=O)CC(C)(C)C7=C(C)C(=O)C(C)=C(C)C7=O)ccc(c56)C4=O)nn3)cc2oc1=O (stereo not shown) [QNAM-C1-ACEA]
- change of the FRET ratio (intensity ratio of two emission peaks) (NQO1): about 20 times
- CLSM emission of C1 coumarin (blue) and NAM (green) in cells [1]: intermittent blue luminous points of C1 coumarin and few NAM green emission signals
- CLSM emission of C1 coumarin (blue) and NAM (green) in cells [2]: green channel NAM emission was obviously enhanced
- CLSM emission of C1 coumarin (blue) and NAM (green) in cells [3]: very low blue and green emission
